# Values quoted from earlier work in patent US7364905B2, “Apparatus and method for high throughput analysis of compound-membrane interactions” (TechElan, LLC, priority 2001, dated 2008).
# Test system: Caco-2 cells
# Settings: Caco-2 cell mono-layer versus gut
smiles,measurement,value
OC[C@@H](O)[C@@H](O)[C@H](O)[C@H](O)CO [mannitol],rate of permeation through the cell mono-layer relative to through the gut,fifty to three hundred and sixty times lower
